Assay results reported in article PMC9501280, “Anti-Inflammatory Activity of Soluble Epoxide Hydrolase Inhibitors Based on Selenoureas Bearing an Adamantane Moiety” (International Journal of Molecular Sciences, 2022).

Assays:
[1] = tested on: human neuroblastoma cells (SH-SY5Y); test: MTT test on neuroblastoma cells; format: cell-based; details: 72 h, read-out: EC50 ± SEM, SH-SY5Y
Method: For compounds with evident anti-inflammatory activity (4a and 5b) and one outgroup compound (4g), MTT tests with the human fibroblast cells (MRC-5) and human neuroblastoma cells (SH-SY5Y) were carried out. The studied compounds were added in concentrations of 1, 3, 6, 12, 25, 50, and 100 μM.
The MTT test to determine the effect of cell viability was performed on the SH-SY5Y neuroblastoma cell line in a 96-well plate.
Cells grown to 80% confluence were trypsinized and plated at a density of 5000 cells per well (100 µL total well volume) and incubated overnight in a CO2 incubator. The next day, a 50 mM stock of studied compounds in DMSO was diluted in DMEM and added in the amount of 50 μL per well to obtain final concentrations of 1–100 μM. […] After that, the supernatant was discarded, 100 μL of DMSO was added and, after the dissolution of the formazan crystals, the absorbance at 570 nm was measured on a Synergy HT plate reader (Biotek, Winooski, VT, USA). […]
All experiments with SH-SY5Y, E. coli and B. subtilis cell cultures were performed in 3 independent repetitions. The error in the luminescence measurements was calculated using the standard deviation equation based on 3 repeats, its values on the graphs are shown with error bars. EC50 concentrations were determined using Combenefit software.

[2] = tested on: B. subtilis 168 pNK-DinC; test: Lux-biosensor, SOS response (PdinC); format: cell-based, Bacillus subtilis; details: compounds 1 μM to 1 mM; Standard = Mitomycin C 30 μM
Method: (§1) The study was carried out with use of the following whole-cell bacterial biosensors: Escherichia coli MG1655 pOxyR-lux, E. coli MG1655 pDps, E. coli MG1655 pSoxS-lux, E. coli MG1655 pColD-lux, E. coli MG1655 pAlkA-lux, E. coli MG1655 pXen7, Bacillus subtilis 168 pNK-AlkA, B. subtilis 168 pNK-MrgA and B. subtilis 168 pNK-DinC. These biosensors by the quantitation of bacterial stress promoters’ activity, make it possible to determine oxidative stress caused by hydrogen peroxide and the superoxide anion radical, SOS response, DNA alkylation, or general toxicity in Gram-positive and Gram-negative B. subtilis and E. coli cells. We used concentrations from 1 μM to 1 mM of the studied compounds added to the suspension of biosensor cells. […]
(§2) The bioluminescence of cells was measured using a Synergy HT luminometer (Biotek, Winooski, VT, USA) at room temperature. Lux biosensors based on E. coli were grown to an early logarithmic phase (OD ≈ 0.1) to achieve a background luminescence approximately 100–1000 RLU at the beginning of the measurements. Lux biosensors based on B. subtilis were grown to a logarithmic phase with an optical density OD ≈ 0.6 (and background luminescence of about 10–500 RLU). […] The kinetics of change in luminescence was measured at room temperature. […]

[3] = tested on: B. subtilis 168 pNK-MrgA; test: Lux-biosensor, hydrogen peroxide (PmrgA); format: cell-based, Bacillus subtilis; details: compounds 1 μM to 1 mM; Standard = hydrogen peroxide 100 μM
Method: as §1, §2

[4] = tested on: B. subtilis 168 pNK-AlkA; test: Lux-biosensor, DNA alkylation (PalkA); format: cell-based, Bacillus subtilis; details: compounds 1 μM to 1 mM; Standard = methyl methanesulfonate 1 mM
Method: as §1, §2

[5] = tested on: E. coli MG1655 and B. subtilis 168 biosensor cells; test: Whole-cell bacterial lux-biosensors, whole panel (statements in words); format: cell-based, Escherichia coli, Bacillus subtilis; details: concentrations from 1 μM to 1 mM
Method: The study was carried out with use of the following whole-cell bacterial biosensors: Escherichia coli MG1655 pOxyR-lux, E. coli MG1655 pDps, E. coli MG1655 pSoxS-lux, E. coli MG1655 pColD-lux, E. coli MG1655 pAlkA-lux, E. coli MG1655 pXen7, Bacillus subtilis 168 pNK-AlkA, B. subtilis 168 pNK-MrgA and B. subtilis 168 pNK-DinC. These biosensors by the quantitation of bacterial stress promoters’ activity, make it possible to determine oxidative stress caused by hydrogen peroxide and the superoxide anion radical, SOS response, DNA alkylation, or general toxicity in Gram-positive and Gram-negative B. subtilis and E. coli cells. We used concentrations from 1 μM to 1 mM of the studied compounds added to the suspension of biosensor cells.
In this work, biosensor strains based on E. coli MG1655 cells and B. subtilis 168 cells were used.
The bioluminescence of cells was measured using a Synergy HT luminometer (Biotek, Winooski, VT, USA) at room temperature. Lux biosensors based on E. coli were grown to an early logarithmic phase (OD ≈ 0.1) to achieve a background luminescence approximately 100–1000 RLU at the beginning of the measurements. Lux biosensors based on B. subtilis were grown to a logarithmic phase with an optical density OD ≈ 0.6 (and background luminescence of about 10–500 RLU). […] The kinetics of change in luminescence was measured at room temperature.

| SMILES | EC50 [1] [µM] | max(Kind), B. subtilis 168 pNK-DinC [2] | max(Kind), B. subtilis 168 pNK-MrgA [3] | max(Kind), B. subtilis 168 pNK-AlkA [4] | activation of stress promoters (in words) [5] |
| --- | --- | --- | --- | --- | --- |
| [Se]=C(Nc1ccccc1)NC1C2CC3CC(C2)CC1C3 (stereo not shown) [4g, 1-(Adamantan-2-yl)-3-phenylselenourea] | 8.6 ± 0.9 | 1.1 ± 0.3 | 1.2 ± 0.3 | 0.7 ± 0.4 | does not cause an increase in the luminescence |
| [Se]=C(Nc1ccccc1)NC12CC3CC(CC(C3)C1)C2 [4a, 1-(Adamantan-1-yl)-3-phenylselenourea] | 16.5 ± 1.5 | 1.1 ± 0.4 | 1.2 ± 0.5 | 0.8 ± 0.4 | causes only the activation of stress promoter PoxyR |
